This is an account of results in paper PMC7694773, “Synthesis, 3D-QSAR, and Molecular Modeling Studies of Triazole Bearing Compounds as a Promising Scaffold for Cyclooxygenase-2 Inhibition” (Pharmaceuticals, 2020).

Structures are written as SMILES. Several values for one entry are separate records, joined by “and”; a condition that tells them apart may be missing. Identical values can stand only once. Like-named read-outs stand apart in the source and are kept apart here.

The target in one data set is T1, bovine COX-1 (Ovis aries, UniProt P05979).
T1 construct: purchased Cayman Chemical 560131
T1 sequence (P05979 25-600): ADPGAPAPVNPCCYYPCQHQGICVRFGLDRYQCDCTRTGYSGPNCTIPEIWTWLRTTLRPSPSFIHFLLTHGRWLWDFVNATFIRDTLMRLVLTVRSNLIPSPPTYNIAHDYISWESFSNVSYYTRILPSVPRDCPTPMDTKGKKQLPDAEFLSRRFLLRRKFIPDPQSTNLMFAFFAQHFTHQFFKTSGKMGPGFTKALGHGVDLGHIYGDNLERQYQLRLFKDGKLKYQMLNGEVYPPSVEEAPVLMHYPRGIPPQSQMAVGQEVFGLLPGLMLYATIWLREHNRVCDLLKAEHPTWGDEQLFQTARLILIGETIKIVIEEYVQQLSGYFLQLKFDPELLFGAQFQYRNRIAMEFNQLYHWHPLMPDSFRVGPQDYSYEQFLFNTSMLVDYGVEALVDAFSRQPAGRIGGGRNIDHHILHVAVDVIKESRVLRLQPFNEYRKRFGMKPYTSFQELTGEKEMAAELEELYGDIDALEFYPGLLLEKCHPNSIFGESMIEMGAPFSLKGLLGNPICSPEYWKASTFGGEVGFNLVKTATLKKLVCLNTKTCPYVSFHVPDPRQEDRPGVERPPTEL
The experiment in a line: In vitro COX-1 inhibition, enzyme immunoassay kit (Cayman item no. 560131). Type of data set: biochemical. As to conditions: mean of two determinations. An excerpt: (§1) The in vitro COX-1/COX-2 isozyme inhibition studies measure the ability of tested compounds to inhibit bovine COX-1 and human recombinant COX-2 using an enzyme immunoassay (COX inhibitor screening assay kit, item no. 560131) according to the manufacturer’s instructions. […].

In another data set the target is T2, human recombinant COX-2 (Homo sapiens, UniProt P35354).
T2 construct: purchased Cayman Chemical 560131
T2 sequence (P35354 18-604): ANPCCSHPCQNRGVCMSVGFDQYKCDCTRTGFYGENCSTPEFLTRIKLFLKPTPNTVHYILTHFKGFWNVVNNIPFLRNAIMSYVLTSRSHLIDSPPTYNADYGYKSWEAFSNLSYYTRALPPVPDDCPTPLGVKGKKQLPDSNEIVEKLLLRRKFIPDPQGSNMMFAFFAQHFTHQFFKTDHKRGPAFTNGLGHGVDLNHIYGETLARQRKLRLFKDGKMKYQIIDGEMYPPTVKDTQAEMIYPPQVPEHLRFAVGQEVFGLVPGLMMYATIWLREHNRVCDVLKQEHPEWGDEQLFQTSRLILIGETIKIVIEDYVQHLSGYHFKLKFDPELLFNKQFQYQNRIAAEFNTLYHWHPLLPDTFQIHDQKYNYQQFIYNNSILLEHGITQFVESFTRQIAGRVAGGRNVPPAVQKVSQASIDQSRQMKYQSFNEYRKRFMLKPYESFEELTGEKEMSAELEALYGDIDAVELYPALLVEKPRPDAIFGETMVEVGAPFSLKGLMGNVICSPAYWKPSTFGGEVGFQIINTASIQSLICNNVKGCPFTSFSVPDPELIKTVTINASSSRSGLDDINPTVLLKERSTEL
Briefly: In vitro COX-2 inhibition, enzyme immunoassay kit (Cayman item no. 560131). Type of data set: biochemical.
Text: as §1

The target of the next data set is T3, egg albumin (Gallus gallus, UniProt P01012).
T3 sequence (P01012 1-386): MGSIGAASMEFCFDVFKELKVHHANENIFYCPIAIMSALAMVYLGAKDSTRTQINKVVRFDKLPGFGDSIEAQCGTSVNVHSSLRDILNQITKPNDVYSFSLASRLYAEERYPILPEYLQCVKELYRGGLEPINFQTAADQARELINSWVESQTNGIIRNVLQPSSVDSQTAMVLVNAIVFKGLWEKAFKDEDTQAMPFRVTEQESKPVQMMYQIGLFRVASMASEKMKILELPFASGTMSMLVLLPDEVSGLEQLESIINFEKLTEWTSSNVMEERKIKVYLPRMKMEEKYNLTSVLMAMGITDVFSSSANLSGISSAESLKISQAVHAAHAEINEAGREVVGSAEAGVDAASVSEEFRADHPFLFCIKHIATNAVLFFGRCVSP
Briefly: In situ anti-inflammatory assay: inhibition of protein (albumin) denaturation. As to conditions: protein denaturation, three replicates. As for the experimental part: Protein denaturation is used for the evaluation of anti-inflammatory activity. In this methodology, generally, tertiary and secondary protein structures will typically be destroyed by the application of an external molecule or stress. The biological function of most bio-proteins is lost if it is denatured. It is well reported that a basis of inflammation is denaturation of protein.
The reaction mixture is molecules with serial dilutions (1000, 100, 10, 1, 0.1 µM), phosphate buffered saline (PBS; pH 6.4), and egg albumin. The control used was double distilled water (equal volume). […] After attaining ambient temperature, the absorbance of samples was measured spectrophotometrically at 660 nm using vehicle as blank. […] The experiment was performed in triplicate. Percent inhibition of protein denaturation was calculated using the Equation Inhibition (%) of protein denaturation inhibition (%) = (AC − AS)/AC × 100 where AC: absorbance of control, AS: absorbance of sample.

[1] abbreviates: human recombinant COX-2, mean of two determinations, read-out: IC50 COX-2.
The mark [2] stands for this setting: pIC50 = −Log (IC50) of the COX-2 IC50, read-out: Activity (experimental pIC50, COX-2) (converted).

As for `Sc1nnc(COc2ccc3ccccc3c2)n1N=Cc1ccccc1` [Compound 9a, 4-(benzylideneamino)-5-((naphthalen-2-yloxy)methyl)-4H-1,2,4-triazole-3-thiol], the melting point (usually the temperature of the solid-liquid transition) lay within 184 to 186 °C. This compound came in with an IC50 on bovine COX-1 of 6930 nM. On human recombinant COX-2, the “COX-2 S.I. (selectivity index, COX-1 IC50/COX-2 IC50)” value turned out to be 31.5. The IC50 at human recombinant COX-2 (setting [1]) was 220 nM. For the same compound, at human recombinant COX-2 (setting [2]), the IC50 is 220 nM.
With `Oc1ccccc1C=Nn1c(S)nnc1COc1ccc2ccccc2c1` [Compound 9b, 2-(((3-mercapto-5-((naphthalen-2-yloxy)methyl)-4H-1,2,4-triazol-4-yl)imino)methyl)phenol], the melting point is 208 to 219 °C. The IC50 against bovine COX-1 turned out to be 7670 nM. The “COX-2 S.I. (selectivity index, COX-1 IC50/COX-2 IC50)” value on human recombinant COX-2 is listed as 40.4. The IC50 at human recombinant COX-2 (setting [1]) worked out at 190 nM. The IC50 on human recombinant COX-2 (setting [2]) was 190 nM.
Regarding `O=[N+]([O-])c1cccc(C=Nn2c(S)nnc2COc2ccc3ccccc3c2)c1` [Compound 9c, 5-((naphthalen-2-yloxy)methyl)-4-((3-nitrobenzylidene)amino)-4H-1,2,4-triazole-3-thiol], the melting point lay within 200 to 202 °C. For the same compound, the IC50 at bovine COX-1 was 9430 nM. In addition, at human recombinant COX-2, the “COX-2 S.I. (selectivity index, COX-1 IC50/COX-2 IC50)” value was found to be 72.5. Moreover, the IC50 at human recombinant COX-2 (setting [1]) came to 130 nM. For the same compound, the IC50 at human recombinant COX-2 (setting [2]) was 130 nM.
As to `O=C(CCl)Sc1nnc(COc2ccc3ccccc3c2)n1N=Cc1ccccc1` [Compound 10a], the IC50 at bovine COX-1 was 9720 nM; on human recombinant COX-2 (setting [1]), 130 nM; at human recombinant COX-2 (setting [2]), 130 nM. Also, the “COX-2 S.I. (selectivity index, COX-1 IC50/COX-2 IC50)” value at human recombinant COX-2 came out at 74.8.
As to `O=C(CCl)Sc1nnc(COc2ccc3ccccc3c2)n1N=Cc1ccccc1O` [Compound 10b], the IC50 against bovine COX-1 was 9890 nM; on human recombinant COX-2 (setting [1]), 140 nM; on human recombinant COX-2 (setting [2]), 140 nM. Also, the “COX-2 S.I. (selectivity index, COX-1 IC50/COX-2 IC50)” value at human recombinant COX-2 turned out to be 70.6.
Take `O=C(CCl)Sc1nnc(COc2ccc3ccccc3c2)n1N=Cc1cccc([N+](=O)[O-])c1` [Compound 10c]: the IC50 against bovine COX-1 is 10100 nM; at human recombinant COX-2 (setting [1]), 120 nM; on human recombinant COX-2 (setting [2]) it was 120 nM. The “COX-2 S.I. (selectivity index, COX-1 IC50/COX-2 IC50)” value at human recombinant COX-2 is 84.3.
Take `COc1ccc(C=Nn2c(COc3ccc4ccccc4c3)nnc2SC(=O)CCl)cc1` [Compound 10d]: the IC50 against bovine COX-1 is 10300 nM; on human recombinant COX-2 (setting [1]) it was 110 nM; at human recombinant COX-2 (setting [2]), 110 nM. At human recombinant COX-2, the “COX-2 S.I. (selectivity index, COX-1 IC50/COX-2 IC50)” value came to 94.1.
Turning to `Nc1ncc(Sc2nnc(COc3ccc4ccccc4c3)n2N=Cc2ccccc2)o1` [Compound 11a, 5-((4-(benzylideneamino)-5-((naphthalen-2-yloxy)methyl)-4H-1,2,4-triazol-3-yl)thio)oxazol-2-amine], the melting point lay in the range of 162 to 164 °C. In addition, the IC50 against bovine COX-1 is 12400 nM. For the same compound, the “COX-2 S.I. (selectivity index, COX-1 IC50/COX-2 IC50)” value on human recombinant COX-2 is listed as 154.6. In addition, on human recombinant COX-2 (setting [1]), the IC50 was 80 nM. Also, at human recombinant COX-2 (setting [2]), the IC50 was 80 nM.
In turn, `Nc1ncc(Sc2nnc(COc3ccc4ccccc4c3)n2N=Cc2ccccc2O)o1` [Compound 11b, 2-(((3-((2-aminooxazol-5-yl)thio)-5-((naphthalen-2-yloxy)methyl)-4H-1,2,4-triazol-4-yl)imino)methyl)phenol] yielded a melting point of 80 to 81 °C. Moreover, the IC50 at bovine COX-1 turned out to be 10700 nM. Further, the “COX-2 S.I. (selectivity index, COX-1 IC50/COX-2 IC50)” value at human recombinant COX-2 worked out at 119.2. Also, the IC50 at human recombinant COX-2 (setting [1]) worked out at 90 nM. Moreover, the IC50 on human recombinant COX-2 (setting [2]) is 89.9 nM.
`Nc1ncc(Sc2nnc(COc3ccc4ccccc4c3)n2N=Cc2cccc([N+](=O)[O-])c2)o1` [Compound 11c, 5-((5-((naphthalen-2-yloxy)methyl)-4-((3-nitrobenzylidene)amino)-4H-1,2,4-triazol-3-yl)thio)oxazol-2-amine] displayed a melting point of 196 to 198 °C. The compound also returned an IC50 against bovine COX-1 of 12600 nM. Besides, the “COX-2 S.I. (selectivity index, COX-1 IC50/COX-2 IC50)” value at human recombinant COX-2 worked out at 252.6. Also, the IC50 on human recombinant COX-2 (setting [1]) came to 50 nM. Further, the IC50 at human recombinant COX-2 (setting [2]) is 50 nM and 49 nM.
The compound `COc1ccc(C=Nn2c(COc3ccc4ccccc4c3)nnc2Sc2cnc(N)o2)cc1` [Compound 11d, 5-((4-((4-methoxybenzylidene)amino)-5-((naphthalen-2-yloxy)methyl)-4H-1,2,4-triazol-3-yl)thio)oxazol-2-amine] yielded a melting point of 70 to 71 °C. The compound also gave an IC50 against bovine COX-1 of 11500 nM. The “COX-2 S.I. (selectivity index, COX-1 IC50/COX-2 IC50)” value on human recombinant COX-2 worked out at 192.2. Further, the IC50 at human recombinant COX-2 (setting [1]) is 60 nM. In addition, the IC50 on human recombinant COX-2 (setting [2]) is 60.1 nM.
Take `Nc1ncc(Sc2nnc(COc3ccc4ccccc4c3)n2N=Cc2ccccc2)s1` [Compound 12a, 5-((4-(benzylideneamino)-5-((naphthalen-2-yloxy)methyl)-4H-1,2,4-triazol-3-yl)thio)thiazol-2-amine]: the melting point fell in the range of 145 to 146 °C. The compound further displayed an IC50 against bovine COX-1 of 9830 nM. Moreover, the “COX-2 S.I. (selectivity index, COX-1 IC50/COX-2 IC50)” value on human recombinant COX-2 stood at 98.3. In addition, the IC50 on human recombinant COX-2 (setting [1]) is 100 nM. Also, at human recombinant COX-2 (setting [2]), the IC50 is 100 nM.
Compound `Nc1ncc(Sc2nnc(COc3ccc4ccccc4c3)n2N=Cc2ccccc2O)s1` [Compound 12b, 2-(((3-((2-aminothiazol-5-yl)thio)-5-((naphthalen-2-yloxy)methyl)-4H-1,2,4-triazol-4-yl)imino)methyl)phenol] yielded a melting point of 77 to 78 °C. For the same compound, the IC50 on bovine COX-1 came to 12100 nM. The “COX-2 S.I. (selectivity index, COX-1 IC50/COX-2 IC50)” value on human recombinant COX-2 was 202.0 and 202.2. At human recombinant COX-2 (setting [1]), the IC50 came out at 60 nM. The IC50 on human recombinant COX-2 (setting [2]) was 60.1 nM.
In turn, `Nc1ncc(Sc2nnc(COc3ccc4ccccc4c3)n2N=Cc2cccc([N+](=O)[O-])c2)s1` [Compound 12c, 5-((5-((naphthalen-2-yloxy)methyl)-4-((3-nitrobenzylidene)amino)-4H-1,2,4-triazol-3-yl)thio)thiazol-2-amine] yielded a melting point of 182 to 184 °C. Moreover, the IC50 against bovine COX-1 came out at 12500 nM. Besides, the “COX-2 S.I. (selectivity index, COX-1 IC50/COX-2 IC50)” value at human recombinant COX-2 is 325.0 and 311.8. For the same compound, on human recombinant COX-2 (setting [1]), the IC50 was 40 nM. Moreover, the IC50 at human recombinant COX-2 (setting [2]) is 40.1 nM.
`O=C(O)Cc1ccccc1Nc1c(Cl)cccc1Cl` [Diclofenac sodium, reference compound]: the inhibition (as a rule, the percentage by which the read-out fell short of the control) at 1000 µM on egg albumin (conc. 1000 µM, read-out: % of inhibition ± SEM at conc. 1000) is 94.2%. The “% of inhibition ± SEM at conc. 0.1” value at egg albumin (conc. 0.1 (µM)) came out at 32.14±1.01%. Besides, the “% of inhibition ± SEM at conc. 1” value at egg albumin (conc. 1 (µM)) is on record as 61.45±1.21%. The “% of inhibition ± SEM at conc. 10” value at egg albumin (conc. 10 (µM)) was 67.32±0.95%. Moreover, the “% of inhibition ± SEM at conc. 100” value at egg albumin (conc. 100 (µM)) was 82.43±1.87%.
